US20160068861A1, “METHOD FOR DETECTING PROTEIN STABILITY AND USES THEREOF” (priority 2013, published 2016)

Assays:
[1] = tested on: CZ-1/R cells; test: MTT detection of cell viability, BTZ-resistant cell line; type: cell-based, human
Method: (§1) CZ-1 cells can be obtained from Hou Jian Laboratory of Shanghai Changzheng Hospital (Hou J, Lin F Y, Zhang B, Zhang L Z, Ding S Q, Establishment and biological characteristics of human multiple myeloma cell line CZ-1. Chinese Medical Journal [2004, 117(1):115-119]); CZ-1/R cell lines was constructed by the inventor's Laboratories, and can be obtained from the inventor's laboratory (http://www.sibcb.ac.cn/PI.asp?id=129).
(§2) Plates were incubated for 24-72 hours. To each well was added 20 ul MTT (3-(4,5-dimethyl-2-thiazole)-2,5-diphenyl tetrazolium bromide) solution, culture was continued for another 4 hrs. To each well was added 150 ul of dimethyl sulfoxide, shaken on a shaker at low speed for 10 mins for thoroughly dissolving the crystals. Absorbance of each well was measured on an enzyme-linked immune detector at OD 490 nm (570 nm).

[2] = tested on: CZ-1 cells; test: MTT detection of cell viability, BTZ-sensitive cell line; type: cell-based, human
Method: as §1, §2

[3] = BTZ in combination with 17-AAG, FIG. 9
[4] = BTZ in combination with C75, FIG. 9

Measured: killing effects (MTT)

CC(C)C[C@H](NC(=O)[C@H](Cc1ccccc1)NC(=O)c1cnccn1)B(O)O [BTZ, Bortezomib]
significant killing effects: [1]; [3] | [1]; [4] | [2]; [3] | [2]; [4]
